Measurements taken from ChEMBL document CHEMBL4406807, “Discovery of 3,4,6-Trisubstituted Piperidine Derivatives as Orally Active, Low hERG Blocking Akt Inhibitors via Conformational Restriction and Structure-Based Design” (J Med Chem, 2019).

Columns and labels:
HCT-116 = assay: cells; conditions: Homo sapiens, HCT-116, 72 h
Protein kinase C (PKC) = assay: Inhibition of PKC (unknown origin); assay type: protein assay, Homo sapiens
[1] = target: RAC-alpha serine/threonine-protein kinase (Homo sapiens, UniProt P31749)
Sequence of RAC-alpha serine/threonine-protein kinase (P31749 whole entry): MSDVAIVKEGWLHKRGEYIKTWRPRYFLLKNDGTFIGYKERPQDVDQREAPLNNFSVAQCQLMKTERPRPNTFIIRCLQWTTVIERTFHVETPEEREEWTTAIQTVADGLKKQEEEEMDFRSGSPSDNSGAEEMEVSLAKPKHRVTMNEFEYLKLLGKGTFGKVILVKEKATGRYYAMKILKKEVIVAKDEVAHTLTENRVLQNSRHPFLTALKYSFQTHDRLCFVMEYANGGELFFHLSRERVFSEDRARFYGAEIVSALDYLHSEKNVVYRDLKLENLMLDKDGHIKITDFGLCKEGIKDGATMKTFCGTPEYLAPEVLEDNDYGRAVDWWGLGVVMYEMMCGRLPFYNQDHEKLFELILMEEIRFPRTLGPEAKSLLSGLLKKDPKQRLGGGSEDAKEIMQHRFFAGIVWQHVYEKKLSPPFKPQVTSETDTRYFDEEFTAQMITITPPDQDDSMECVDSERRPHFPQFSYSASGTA
Description: Inhibition of human Akt1 expressed in Escherichia coli using STK Substrate 2-biotin as substrate incubated for 1 hr by HTRF assay

MM1.S = assay: Antitumor activity against human MM1S cells xenografted in BALB/c nude mouse assessed as tumor growth inhibition at 10 mg/kg, po administered once daily for 22 days relative to control; assay type: functional; conditions: 528 h, read-out: TGI
[2] = Toxicity in ICR mouse assessed as reduction in red blood cells at 40 mg/kg, ig administered once daily for 7 days; assay type: organism-based; conditions: in vivo, po, 168 h
[3] = target: T1, Serine/threonine-protein kinase Sgk1 (Homo sapiens, UniProt O00141); assay: Inhibition of human SGK by mobility shift assay
T1 sequence (O00141 whole entry): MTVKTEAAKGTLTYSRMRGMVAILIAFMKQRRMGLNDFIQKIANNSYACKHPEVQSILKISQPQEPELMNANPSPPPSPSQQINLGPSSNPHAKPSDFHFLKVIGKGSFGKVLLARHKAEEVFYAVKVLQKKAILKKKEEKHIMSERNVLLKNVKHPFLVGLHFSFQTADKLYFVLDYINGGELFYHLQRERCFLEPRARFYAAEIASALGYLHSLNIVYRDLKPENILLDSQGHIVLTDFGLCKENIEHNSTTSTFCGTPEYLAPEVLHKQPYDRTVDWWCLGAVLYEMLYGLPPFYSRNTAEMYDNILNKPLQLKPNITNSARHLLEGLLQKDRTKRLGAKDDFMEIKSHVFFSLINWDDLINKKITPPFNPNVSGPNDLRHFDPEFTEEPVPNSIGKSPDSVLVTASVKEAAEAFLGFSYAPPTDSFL

[4] = Toxicity in po dosed BALB/c nude mouse xenografted with human MM1S cells assessed as maximum tolerated dose administered once daily for 22 days; assay type: organism-based; conditions: in vivo
LNCaP = assay: Antiproliferative activity against human LNCAP cells; assay type: functional, cell-based
[5] = Microsomal stability in mouse liver microsomes assessed as compound remaining at 100 ug/ml in presence of NADPH measured at 1.5 hrs by LC/MS analysis; assay type: ADME, Microsome; conditions: read-out: Stability
[6] = Toxicity in BALB/c nude mouse xenografted with human MM1S cells assessed as reduction in body weight at 10 mg/kg, po administered once daily for 22 days relative to control; assay type: organism-based; parameters: scale not given: the % may be the effect or the level left; conditions: in vivo, 528 h
[7] = Toxicity in ICR mouse assessed as reduction in hemoglobin level at 40 mg/kg, ig administered once daily for 7 days; assay type: organism-based; conditions: in vivo, po, 168 h
[8] = target: RAC-gamma serine/threonine-protein kinase (Homo sapiens, UniProt Q9Y243); assay: Inhibition of Akt3 (unknown origin) by mobile shift assay
Sequence of RAC-gamma serine/threonine-protein kinase (Q9Y243 whole entry): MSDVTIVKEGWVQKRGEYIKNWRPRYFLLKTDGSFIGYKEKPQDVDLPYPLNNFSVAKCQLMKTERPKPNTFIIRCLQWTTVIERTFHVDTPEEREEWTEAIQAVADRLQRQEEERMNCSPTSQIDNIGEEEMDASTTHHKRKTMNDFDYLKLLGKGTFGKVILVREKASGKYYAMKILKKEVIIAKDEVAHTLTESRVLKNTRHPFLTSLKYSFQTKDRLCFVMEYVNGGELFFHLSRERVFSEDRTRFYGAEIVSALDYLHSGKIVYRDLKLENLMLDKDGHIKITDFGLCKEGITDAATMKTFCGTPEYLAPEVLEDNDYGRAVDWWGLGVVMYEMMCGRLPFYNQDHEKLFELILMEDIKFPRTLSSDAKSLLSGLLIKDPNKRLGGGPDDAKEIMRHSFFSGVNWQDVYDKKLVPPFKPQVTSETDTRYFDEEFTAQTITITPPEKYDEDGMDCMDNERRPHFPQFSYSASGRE

[9] = Cmax in ICR mouse at 20 mg/kg, po measured up to 48 hrs by LC-MS/MS analysis; assay type: ADME, organism-based; parameters: dose 20 mg/kg, route oral; conditions: in vivo
[10] = Microsomal stability in monkey liver microsomes assessed as compound remaining at 100 ug/ml in presence of NADPH measured at 1.5 hrs by LC/MS analysis; assay type: ADME, Macaca mulatta, Microsome; conditions: rhesus monkey, read-out: Stability
[11] = Toxicity in ICR mouse assessed as induction of heavy gastrointestinal hemorrhage by autopsy analysis; conditions: in vivo
[12] = target: RAC-beta serine/threonine-protein kinase (Homo sapiens, UniProt P31751); assay: Inhibition of human Akt2 by mobile shift assay
Sequence of RAC-beta serine/threonine-protein kinase (P31751 whole entry): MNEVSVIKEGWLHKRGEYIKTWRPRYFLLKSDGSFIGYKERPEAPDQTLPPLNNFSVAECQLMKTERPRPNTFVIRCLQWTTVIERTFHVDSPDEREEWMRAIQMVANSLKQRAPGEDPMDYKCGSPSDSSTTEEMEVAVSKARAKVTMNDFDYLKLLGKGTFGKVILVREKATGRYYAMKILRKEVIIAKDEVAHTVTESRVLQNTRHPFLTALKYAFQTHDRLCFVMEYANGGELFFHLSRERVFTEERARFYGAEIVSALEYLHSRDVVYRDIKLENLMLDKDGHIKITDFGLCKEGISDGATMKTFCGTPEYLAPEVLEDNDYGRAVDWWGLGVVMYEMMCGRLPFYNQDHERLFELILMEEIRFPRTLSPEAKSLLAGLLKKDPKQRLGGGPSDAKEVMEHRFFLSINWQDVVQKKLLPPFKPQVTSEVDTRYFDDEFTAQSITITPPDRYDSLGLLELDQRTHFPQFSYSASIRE

[13] = Microsomal stability in dog liver microsomes assessed as compound remaining at 100 ug/ml in presence of NADPH measured at 1.5 hrs by LC/MS analysis; assay type: ADME, Canis lupus familiaris, Microsome; conditions: read-out: Stability
[14] = Toxicity in ICR mouse assessed as reduction in creatinine level at 40 mg/kg, ig administered once daily for 7 days; assay type: organism-based; conditions: in vivo, po, 168 h
[15] = AUC (0 to infinity) in ICR mouse at 20 mg/kg, po measured up to 48 hrs by LC-MS/MS analysis; assay type: ADME, organism-based; parameters: dose 20 mg/kg, time infinity, route oral; conditions: in vivo
[16] = Toxicity in ICR mouse assessed as reduction in mouse survival at 20 to 40 mg/kg, ig administered once daily for 7 days; assay type: organism-based; conditions: in vivo, po, 168 h
hERG (KCNH2) = hERG (KCNH2) (Homo sapiens, UniProt Q12809); assay: Inhibition of ERG in human HEK293 cells at 3 uM at -80 mV holding potential by whole-cell patch clamp assay relative to control; assay type: cell-based; conditions: HEK293 cells expressing ERG
Sequence of hERG (KCNH2) (Q12809 whole entry): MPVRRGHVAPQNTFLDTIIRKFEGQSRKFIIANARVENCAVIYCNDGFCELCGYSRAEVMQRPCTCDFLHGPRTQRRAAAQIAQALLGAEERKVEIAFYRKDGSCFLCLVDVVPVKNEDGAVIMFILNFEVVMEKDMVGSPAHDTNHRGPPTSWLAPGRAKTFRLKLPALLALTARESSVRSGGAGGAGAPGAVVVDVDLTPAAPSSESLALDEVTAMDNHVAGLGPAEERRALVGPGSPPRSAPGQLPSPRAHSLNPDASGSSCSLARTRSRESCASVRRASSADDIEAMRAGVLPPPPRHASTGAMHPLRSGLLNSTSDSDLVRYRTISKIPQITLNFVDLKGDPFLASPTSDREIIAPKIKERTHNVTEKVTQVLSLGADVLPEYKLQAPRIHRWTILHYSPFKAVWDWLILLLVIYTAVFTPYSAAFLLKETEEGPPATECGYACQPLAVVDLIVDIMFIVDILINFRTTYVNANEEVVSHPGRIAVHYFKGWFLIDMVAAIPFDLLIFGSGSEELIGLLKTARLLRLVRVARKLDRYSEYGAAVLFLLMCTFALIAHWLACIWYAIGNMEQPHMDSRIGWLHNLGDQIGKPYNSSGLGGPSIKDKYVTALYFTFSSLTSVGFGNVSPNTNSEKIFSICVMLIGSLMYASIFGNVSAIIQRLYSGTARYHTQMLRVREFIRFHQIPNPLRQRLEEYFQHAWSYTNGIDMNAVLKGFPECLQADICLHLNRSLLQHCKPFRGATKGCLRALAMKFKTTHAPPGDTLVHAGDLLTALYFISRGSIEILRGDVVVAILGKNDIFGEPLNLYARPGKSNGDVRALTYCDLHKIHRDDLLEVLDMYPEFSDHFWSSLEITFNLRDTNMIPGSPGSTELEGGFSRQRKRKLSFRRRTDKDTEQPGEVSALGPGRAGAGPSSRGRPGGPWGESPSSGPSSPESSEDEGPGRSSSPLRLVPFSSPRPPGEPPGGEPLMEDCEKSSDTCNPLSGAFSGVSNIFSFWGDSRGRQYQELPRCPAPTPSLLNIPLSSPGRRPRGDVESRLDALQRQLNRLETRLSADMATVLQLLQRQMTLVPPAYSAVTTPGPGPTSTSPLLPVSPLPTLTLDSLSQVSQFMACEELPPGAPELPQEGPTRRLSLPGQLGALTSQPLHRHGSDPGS

[17] = target: Ribosomal protein S6 kinase beta-1 (Homo sapiens, UniProt P23443); assay: Inhibition of human P70S6K by mobility shift assay
[18] = Microsomal stability in rat liver microsomes assessed as compound remaining at 100 ug/ml in presence of NADPH measured at 1.5 hrs by LC/MS analysis; assay type: ADME, Microsome; conditions: read-out: Stability
[19] = target: Serine/threonine-protein kinase AKT (Homo sapiens, UniProt P31751+Q9Y243+P31749); assay: Inhibition of Akt in human LNCaP cells assessed as reduction in PRAS40 phosphorylation at T246 residue after 1 hr by ELISA; assay type: cell-based
[20] = Oral bioavailability in ICR mouse at 20 mg/kg measured up to 48 hrs by LC-MS/MS analysis; assay type: ADME, organism-based; conditions: in vivo
OVCAR-8 = assay: Antiproliferative activity against human OVCAR8 cells; assay type: functional, cell-based
[21] = Half-life in ICR mouse at 20 mg/kg, po measured up to 48 hrs by LC-MS/MS analysis; assay type: ADME, organism-based; conditions: in vivo
[22] = target: Ribosomal protein S6 kinase alpha-1 (Homo sapiens, UniProt Q15418); assay: Inhibition of RSK1 (unknown origin) by mobility shift assay
Sequence of Ribosomal protein S6 kinase alpha-1 (Q15418 whole entry): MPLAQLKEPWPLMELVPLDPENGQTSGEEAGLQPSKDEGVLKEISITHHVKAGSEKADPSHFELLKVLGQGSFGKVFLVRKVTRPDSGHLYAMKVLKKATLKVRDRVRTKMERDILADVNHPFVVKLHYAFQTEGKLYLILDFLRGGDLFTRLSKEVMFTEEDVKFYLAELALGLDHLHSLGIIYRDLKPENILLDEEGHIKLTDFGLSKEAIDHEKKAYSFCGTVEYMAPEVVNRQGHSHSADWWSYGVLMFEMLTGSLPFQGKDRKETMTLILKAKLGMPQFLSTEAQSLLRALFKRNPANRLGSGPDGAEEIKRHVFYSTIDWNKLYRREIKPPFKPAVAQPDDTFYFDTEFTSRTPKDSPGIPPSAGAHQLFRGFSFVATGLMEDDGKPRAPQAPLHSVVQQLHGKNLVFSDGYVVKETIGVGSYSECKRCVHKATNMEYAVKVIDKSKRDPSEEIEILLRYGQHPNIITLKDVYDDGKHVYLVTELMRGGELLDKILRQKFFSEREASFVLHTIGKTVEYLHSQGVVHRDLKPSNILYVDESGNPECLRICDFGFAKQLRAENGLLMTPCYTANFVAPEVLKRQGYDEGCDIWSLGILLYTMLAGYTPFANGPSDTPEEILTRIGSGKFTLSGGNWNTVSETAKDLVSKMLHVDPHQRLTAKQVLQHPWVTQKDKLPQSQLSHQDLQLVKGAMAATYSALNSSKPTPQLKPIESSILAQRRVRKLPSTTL

[23] = Toxicity in ICR mouse assessed as reduction in specific volume of RBC at 40 mg/kg, ig administered once daily for 7 days; assay type: organism-based; conditions: in vivo, po, 168 h
[24] = Toxicity in BALB/c nude mouse xenografted with human MM1S cells assessed as reduction in mouse survival at 10 mg/kg, po administered once daily for 22 days; assay type: organism-based; conditions: in vivo, 528 h
[25] = target: Rho-associated protein kinase 1 (Homo sapiens, UniProt Q13464); assay: Inhibition of human ROCK1 by mobile shift assay
Sequence of Rho-associated protein kinase 1 (Q13464 whole entry): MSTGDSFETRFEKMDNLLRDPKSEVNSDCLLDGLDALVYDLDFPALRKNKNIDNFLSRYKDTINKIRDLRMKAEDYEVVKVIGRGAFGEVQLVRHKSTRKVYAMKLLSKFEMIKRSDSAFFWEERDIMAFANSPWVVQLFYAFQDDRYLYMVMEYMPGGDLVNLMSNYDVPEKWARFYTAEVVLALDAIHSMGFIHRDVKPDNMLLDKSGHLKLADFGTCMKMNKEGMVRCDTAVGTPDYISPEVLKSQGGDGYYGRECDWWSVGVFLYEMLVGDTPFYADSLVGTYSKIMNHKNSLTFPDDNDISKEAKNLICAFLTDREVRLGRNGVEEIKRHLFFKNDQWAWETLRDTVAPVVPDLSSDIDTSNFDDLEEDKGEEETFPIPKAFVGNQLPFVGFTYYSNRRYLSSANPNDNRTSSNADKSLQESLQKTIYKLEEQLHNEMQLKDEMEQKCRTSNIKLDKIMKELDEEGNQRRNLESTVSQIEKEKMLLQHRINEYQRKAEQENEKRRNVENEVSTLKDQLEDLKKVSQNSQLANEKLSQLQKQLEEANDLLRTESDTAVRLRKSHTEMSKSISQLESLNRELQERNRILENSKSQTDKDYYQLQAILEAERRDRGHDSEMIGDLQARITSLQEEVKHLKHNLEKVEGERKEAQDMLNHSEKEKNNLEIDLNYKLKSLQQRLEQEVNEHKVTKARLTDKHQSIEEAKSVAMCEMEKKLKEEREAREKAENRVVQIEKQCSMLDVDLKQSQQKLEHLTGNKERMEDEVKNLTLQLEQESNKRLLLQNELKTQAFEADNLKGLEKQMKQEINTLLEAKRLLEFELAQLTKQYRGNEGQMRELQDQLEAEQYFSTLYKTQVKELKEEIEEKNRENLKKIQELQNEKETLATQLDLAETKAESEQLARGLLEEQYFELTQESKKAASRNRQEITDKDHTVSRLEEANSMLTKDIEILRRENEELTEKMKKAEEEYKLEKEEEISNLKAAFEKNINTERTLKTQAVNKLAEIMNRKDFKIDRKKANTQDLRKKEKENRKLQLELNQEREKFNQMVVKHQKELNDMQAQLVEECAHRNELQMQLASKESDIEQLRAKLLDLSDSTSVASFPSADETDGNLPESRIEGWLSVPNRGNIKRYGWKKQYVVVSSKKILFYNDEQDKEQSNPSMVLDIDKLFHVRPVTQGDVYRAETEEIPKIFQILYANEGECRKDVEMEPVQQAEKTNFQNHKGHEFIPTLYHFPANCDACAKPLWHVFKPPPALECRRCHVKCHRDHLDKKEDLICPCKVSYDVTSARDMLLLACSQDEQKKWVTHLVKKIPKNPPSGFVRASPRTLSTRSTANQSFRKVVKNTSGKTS

[26] = Cmax in Sprague-Dawley rat at 25 mg/kg, ig measured up to 24 hrs by LC-MS/MS analysis; assay type: ADME, organism-based; parameters: dose 25 mg/kg, route […]; conditions: in vivo, po
[27] = Stability in mouse plasma at 100 ug/ml after 1 hr by LC/MS analysis; assay type: ADME, cell-free; conditions: read-out: Stability
[28] = Half-life in Sprague-Dawley rat at 25 mg/kg, ig measured up to 24 hrs by LC-MS/MS analysis; assay type: ADME, organism-based; conditions: in vivo, po
[29] = AUC (0 to infinity) in Sprague-Dawley rat at 25 mg/kg, ig measured up to 24 hrs by LC-MS/MS analysis; assay type: ADME, organism-based; parameters: dose 25 mg/kg, route […], time infinity; conditions: in vivo, po
[30] = MRT (0 to t) in Sprague-Dawley rat at 25 mg/kg, ig measured up to 24 hrs by LC-MS/MS analysis; assay type: ADME, organism-based; conditions: in vivo, po
[31] = Stability in human plasma at 100 ug/ml after 1 hr by LC/MS analysis; assay type: ADME, cell-free; conditions: read-out: Stability
[32] = MRT (0 to infinity) in Sprague-Dawley rat at 25 mg/kg, ig measured up to 24 hrs by LC-MS/MS analysis; assay type: ADME, organism-based; conditions: in vivo, po
[33] = Volume of distribution in Sprague-Dawley rat at 25 mg/kg, ig measured up to 24 hrs by LC-MS/MS analysis; assay type: ADME, organism-based; conditions: in vivo, po
[34] = Clearance in Sprague-Dawley rat at 25 mg/kg, ig measured up to 24 hrs by LC-MS/MS analysis; assay type: ADME, organism-based; conditions: in vivo, po
[35] = AUC (0 to t) in Sprague-Dawley rat at 25 mg/kg, ig measured up to 24 hrs by LC-MS/MS analysis; assay type: ADME, organism-based; parameters: time < 24 hr, dose 25 mg/kg, route […]; conditions: in vivo, po
[36] = Tmax in Sprague-Dawley rat at 25 mg/kg, ig measured up to 24 hrs by LC-MS/MS analysis; assay type: ADME, organism-based; conditions: in vivo, po
[37] = Inhibition of recombinant His-tagged human PKA expressed in Escherichia coli using Ser/Thr 01 as substrate after 1 hr by Z-lyte assay

SMILES | IC50 (HCT-116) [nM] | IC50 (Protein kinase C (PKC)) [nM] | IC50 [1] [nM] | IC50 [3] [nM] | IC50 (LNCaP) [nM] | remaining at 1.5 h, 100 ug/ml [5] [%] | IC50 [8] [nM] | remaining at 1.5 h, 100 ug/ml [10] [%] | IC50 [12] [nM] | remaining at 1.5 h, 100 ug/ml [13] [%] | inhibition at 3 µM (hERG (KCNH2)) [%] | IC50 [17] [nM] | remaining at 1.5 h, 100 ug/ml [18] [%] | IC50 (OVCAR-8) [nM] | IC50 [22] [nM] | IC50 [25] [nM] | also measured
Cn1ncc(Cl)c1-c1cc(C(=O)N[C@@H]2CNCC[C@H]2c2ccc(F)c(F)c2)oc1Cl.O=C(O)C(O)C(O)C(=O)O | 210 | 156 | 3 | 59 | 60 | 89.9 | 0.1 | 39.9 | < 0.64 | 86.9 | 62.1 | 7 | 69.7 | 40 | 48 | 20 | inhibition in vivo at 10 mg/kg (MM1.S): 87.5%; Activity [2]: Toxic; MTD at 528 h [4]: < 10 mg/kg; Activity [6]: <= 25%; Activity [7]: Toxic; Cmax [9]: 398 ng/mL; Activity [11]: Toxic; Activity [14]: Toxic; AUC [15]: 6670 ng·h/mL; Activity [16]: Toxic; IC50 [19]: 21.1 nM; bioavailability [20]: 97.9%; half-life [21]: 10.7 h; Activity [23]: Toxic; Activity [24]: Toxic
Cn1ncc(Cl)c1-c1cc(C(=O)N[C@@H]2CN[C@H](CCO)C[C@H]2c2ccc(F)c(F)c2)oc1Cl | 360 | 16 | 0.98 | 102 | 60 | > 99 | 0.12 | 18 | 0.54 | 96 | 9 | 7.1 | 69 | 460 | 32 | 38 | Cmax [26]: 145 ng/mL; remaining at 1 h, 100 ug/ml [27]: > 99%; half-life [28]: 12.7 h; AUC(0-inf) [29]: 1660 ng·h/mL; MRT last at 24 h [30]: 5.1 h; remaining at 1 h, 100 ug/ml [31]: > 99%; MRT inf [32]: 12.3 h; Vd [33]: 300.9 L/kg; CL/F [34]: 433 mL/min/kg; AUC(0-t) at 24 h [35]: 1010 ng·h/mL; Tmax [36]: 1.1 h; IC50 [37]: 0.2 nM
